Source: US10420755B2, “Use of ciclopirox for the treatment of congenital erythropoietic porphyria” (ASOCIACIÓN CENTRO DE INVESTIGACIÓN COOPERATIVA EN …, priority 2016, dated 2019)
Where a chain is given by its changes, count along the chain named. Where a SMILES comes first, the peptide text is derived from it. The star is where a group is joined. Cbz = O=C(OCc1ccccc1)*

Tests used:
HEK 562 = test: Porphyrin accumulation (fluorocytes) by FACS in cellular model of CEP; assay type: cell-based, human; settings: HEK 562 CEP model
Procedure: FIG. 3: Evaluation of UROI levels in a normal HEK cellular phenotype [Up-left graph], in a human in vitro cellular model of CEP (HEK 562) [Up-right graph], in HEK 562 with a tool compound (a proteasome inhibitor termed in the data MG) [Down-left graph], and in HEK 562 with ciclopirox [Down-right graph]. The accumulation of porphyrins is measured by fluorescence spectroscopy (fluorocytes) and is depicted in as the right-shift of the population as compared to normal cells (that are concentrated on the left due to the absence of intrinsic fluorescence). The numbers in bold indicate the percentage of cells in each of the specific populations. CP=ciclopirox, MG=proteasomal inhibitor MG132.
The current supporting data disclosed is in relation to a human in vitro cellular model of CEP (HEK 562) in which there is a stable genomic defect introduced into the uroporphyrinogen III synthase enzyme which drives the accumulation of toxic porphyrins and ultimately the pathology of CEP (including the characteristic disabling and disfiguring skin lesions in CEP patients). […] The accumulation of porphyrins is measured by fluorescence spectroscopy (fluorocytes) and appear shifted to the right as compared to normal cells (which are concentrated in the left area). The numbers in bold indicate the percentage of cells in each of the specific populations. […]

HEK 562 cells = test: HPLC quantification of UROI in cellular model of CEP; assay type: cell-based, human; settings: equimolar quantities of MG and ciclopirox
Procedure: Inset: variation of the concentration of UROI as a function of the CP concentration, in comparison to MG and the absence of any chemical. CP=ciclopirox, MG=proteasomal inhibitor MG132, UROI=uroporphyrinogen I.
Moreover, the reduction in the fluorescence corresponds to a decrease in the intracellular concentration of UROI (see FIG. 4).
HPLC was used to separate and quantify UROI and UROIII products from PBGD and UROIIIS-C73N enzymatic assays and from cellular extracts. HPLC was carried out on a ODS Hypersil C18 column (5 um, 3×200 mm; Thermo Scientific, MA, USA). Porphyrins were separated with a 15 min isocratic elution in a mobile phase of 89% 1M ammonium acetate buffer pH 5.16 and 11% Acetonitrile, at a flow rate of 0.5 mL/min, and were detected by fluorescence with an excitation wavelength 405 nm and emission wavelength 610 nm, which is characteristic of porphyrins. The sample injection volume was […].

[1] = system: mouse in vivo model of CEP; settings: associated with elevation of cellular UROIIIS levels; cited from earlier work
C73N-UROIIIS = molecular target: T1, C73N-UROIIIS (Homo sapiens, UniProt P10746, C73N); test: In vitro enzymatic assay of UROIIIS (PBGD-coupled, as a function of PBG concentration); assay type: biochemical; settings: ratio UROIIIS:ciclopirox 1:5
T1 construct: made in house
T1 sequence (P10746 1-265 C73N): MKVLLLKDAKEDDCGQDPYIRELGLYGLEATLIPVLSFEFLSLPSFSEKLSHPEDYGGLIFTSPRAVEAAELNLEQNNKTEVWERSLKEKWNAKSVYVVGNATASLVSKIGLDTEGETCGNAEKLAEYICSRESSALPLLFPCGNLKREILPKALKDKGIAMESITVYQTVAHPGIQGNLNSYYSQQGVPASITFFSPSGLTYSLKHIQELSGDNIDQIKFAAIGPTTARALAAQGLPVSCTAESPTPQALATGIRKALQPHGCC
Procedure: FIG. 1: evaluation of the C73N-UROIIIS catalytic activity as a function of the PBG concentration. Porphobilinogen deaminase (PBGD) converts porphobilinogen (PBG) into preuroporphirinogen, the substrate for UROIIIS. PBGD is added in excess, acting as a reagent and the experiment reports only on the catalytic activity of the uroporphyrinogen III synthase. The solid/dashed lines correspond to the experimental points in the absence/presence of ciclopirox at a ratio UROIIIS:ciclopyrox 1:5.
The in vitro activity of a deleterious variant of the UROIIIS is measured as a function of the PBG concentration. […] C73N-UROIIIS produces reduced catalytic activity of the enzyme (FIG. 1, solid line).
The assay is based on the method described by Jordan (Shoolingin-Jordan P M et al. (1997). Methods in enzymology 281: 327-336) with some modifications. […] of porphobilinogen deaminase (PBGD) at a concentration of […] in […] of buffer (20 mM Tris-HCl pH 8.0, NaCl 150 mM, pH 8.0) is add in a 96 weels plate. […] of the porphobilinogen (PBG) substrate are then added, diluted to different concentrations (0.1, 0.4, 0.8, 1.5, 2, 3, 4 mM) in the aforementioned buffer and are incubated at 37° C. for one minute. […] Finally, we measure the change of absorbance at 405 nm with respect to the control sample in a plate ABS reader.

UROIIIS = molecular target: T2, UROIIIS (Homo sapiens, UniProt P10746); test: Direct binding by NMR spectroscopy
T2 construct: made in house
T2 sequence (P10746 1-265): T1 sequence (P10746 1-265 C73N) with N73C

C73R- and P248Q-UROIIIS = molecular target: T3, C73R- and P248Q-UROIIIS (Homo sapiens, UniProt P10746, C73R); test: UROIIIS-GFP protein levels (GFP fluorescence) in HEK cells stably expressing mutants; assay type: cell-based; settings: HEK cells expressing C73R or P248Q mutants, compared with WT-UROIIIS
T3 construct: expressed in transfected cells
T3 sequence (P10746 1-265 C73R): T1 sequence (P10746 1-265 C73N) with N73R
Text: FIG. 2: A fusion construct with GFP (C73R-UROIIIS-GFP) has been stably expressed in HEK cells to measure the increase in the protein levels, by monitoring the intrinsic GFP fluorescence. […] Introduction of the pathogenic mutations (i. e. C73R or P248Q) reduces the intrinsic fluorescence due to a decrease in the intracellular UROIIIS concentration. […] For comparison, data obtained with a powerful proteasome inhibitor (MG) is also included. Dashed lines correspond to error bars. CP=ciclopirox, MG=proteasomal inhibitor MG132.
Specifically, we have tested the protein expression for the two most aggressive mutations: C73R- and P248Q-UROIIIS (FIG. 2), utilising human embryonic kidney cells (HEK) stably expressing these mutations.

[2] = system: murine model of CEP (P248Q+/+); test: Murine model of CEP treated with ciclopirox in food; assay type: in vivo, mouse
Text: FIG. 5: Change in porphyrin levels and consequent effect on splenomegaly in mice treated with ciclopirox (CPX). A) Left: URO I or B) COPRO I porphyrin concentration in red blood cells (RBC) as determined by HPLC analysis for the mouse group treated with CPX (n=7, solid line) and the control group (n=9, dashed line). Right: representation of the same porphyrin levels but compared to their respective values at day 0 for the mice treated with CPX (solid line) and the untreated mice (dashed line). The reduction of porphyrins between the two groups is shown in grey dashed line (in percentage). C) Variation in the protoporphyrin IX (PROTO IX) concentration over time in the mouse group treated with CPX (solid line) and the control group (dashed line). D) Concentration of porphyrins in urine at day 45 of treatment (normalized versus creatinine concentration). E) Change in UROI levels in the liver at day 45 of treatment (weight normalized) F) CPX reduces splenomegaly after 45 days of treatment since the spleen volume of the untreated mice (top row) is higher than the CPX treated group (bottom row) Splenomegaly is directly associated with haemolytic anaemia.
Upon treatment disruption, the porphyrin levels are restored, but slowly.
Additionally, after 45 days of treatment, ciclopirox reduced in 40% the porphyrin levels in liver tissue (shown in FIG. 5-E for UROI) and the splenomegaly (FIG. 5-F)—evidence of reduced haemolysis. Moreover, there was a significant weight reduction of the spleen when comparing the ciclopirox group (mean 410±86 mg, FIG. 5-F bottom row) and the untreated group (mean 985±204 mg, FIG. 5-F top row).
A total of 16 animals (murine model of CEP) were used in the experiment and ciclopirox was mixed with the food pellets; 7 animals had food with ciclopirox (plasma levels achieved between 15 and 20 μM) and 9 animals were not given treatment. The isomer I porphyrin levels were monitored in the blood weekly. After a basal (pre-treatment) sample (day 0), treatment was started on day 2 and the first post-treatment sample was obtained on day 3, followed by weekly monitoring.

[3] = treated vs control group, up to day 45

For CC(C)C[C@@H](C=O)NC(=O)[C@H](CC(C)C)NC(=O)[C@H](CC(C)C)NC(=O)OCc1ccccc1 [MG] (Cbz-Leu-Leu-Leu-aldehyde), the “Porphyrin accumulation / cellular phenotype (fluorocytes)” value (HEK 562) is listed as “reduces toxic porphyrin levels”, the “UROI level by HPLC” value (HEK 562 cells) is listed as “reduction of UROI” and the Skin lesions [1] is listed as “decreased skin lesions”.
For Cc1cc(C2CCCCC2)n(O)c(=O)c1 [ciclopirox, 6-cyclohexyl-1-hydroxy-4-methyl-2(1H)-pyridone], the “C73N-UROIIIS catalytic (enzymatic) activity” value (C73N-UROIIIS) was “recovers the enzymatic activity”, the “Direct binding to the enzyme” value (UROIIIS) was “Direct binding has also been demonstrated” and the “Intracellular UROIIIS-GFP fluorescence levels” value (C73R- and P248Q-UROIIIS) was “largely restitutes the fluorescence levels observed with WT-UROIIIS”. For the same compound, the “Porphyrin accumulation / cellular phenotype (fluorocytes)” value (HEK 562) was “largely restore the normal HEK cellular phenotype”, the “UROI level by HPLC” value (HEK 562 cells) was “reduction of UROI” and the “Reduction of porphyrin levels in liver tissue (UROI)” value ([2]; after 45 days of treatment) was 40%. For the same compound, the Splenomegaly ([2]; after 45 days of treatment) was “reduced”, the “Spleen weight (mean)” value ([2]; after 45 days of treatment, untreated group 985±204 mg) was 410 ± 86 mg and the “Isomer I porphyrins in urine” value ([2]; day 45, normalized versus creatinine) was “significantly reduced”. The “Protoporphyrin IX (PROTO IX) concentration” value ([2]; over time, treated vs control) was “increase the concentration”, the “COPRO I porphyrin in blood (RBC)” value [2, 3] was “significantly reduced” and the “URO I porphyrin in blood (RBC)” value [2, 3] was “significantly reduced”.
